Test results reported in patent publication US10450305B2, “LKB1-AMPK activators for therapeutic use in polycystic kidney disease” (The University of Kansas, priority 2014, dated 2019).

Experiments:
[1] = in vivo; cited from earlier work
[2] = test system: ADPKD cell monolayers; details: found previously, selective CFTR inhibitor; cited from earlier work
[3] = Tolerability in wild type mice; type: in vivo; details: mice, 5, 10 and 25 mg/kg i.p., once per day for 4 days
Procedure: (§1) Normal mice were given BIT-11 at 5, 10 or 25 mg/kg body weight by daily intraperitoneal injection for 4 days. BIT-11 was delivered at 20% DMSO and 80% corn oil. Two hours after the last injection, the mice were sacrificed and the kidneys were snap-frozen and stored at −80 degree C., until tissue lysates were prepared. Tissues were homogenized in a lysis buffer containing detergent and protease and phosphatase inhibitors. Proteins were resolved by SDS PAGE and detected by immunoblot using P-AMPK and AMPK antibodies.
(§2) Another study included dosing wild type mice with BIT-11 once per day for 4 days and measured P-AMPK levels in the kidneys two hours after the last dose.

[4] = test system: ADPKD cell monolayers; test: cAMP-induced Cl- secretion (short circuit current) across ADPKD cell monolayers; type: cell-based, human; details: 10 μM for 24 hours, FSK 10 μM, n=10 pairs of monolayers
Procedure: (§3) We designed and synthesized a small molecule LKB1 activator BIT-11 by incorporating an oxadiazole moiety into a unique 3-substituted 2H-chromene derivative. The effects of BIT-11 on phosphorylated AMPK (P-AMPK) and S6 kinase (P-S6K), a downstream target of mTOR, were determined by western blot analysis. To test the drug's effect on Cl^− transport, ADPKD monolayers were incubated in the absence and presence of BIT-11 and then treated with forskolin, a cAMP agonist. Changes in Cl^− transport were measured by short circuit current. For in vitro cyst growth assays, ADPKD cells were seeded within a collagen matrix and treated with EGF and forskolin±BIT-11, and total surface area of cysts per well was calculated from individual cyst diameters.
FIG. 5A-5B show the effect of BIT-11 on cAMP-induced Cl^− secretion by ADPKD cell monolayers. ADPKD cells were grown as polarized monolayers on permeable Snapwell supports. […] ADPKD monolayers were mounted in Ussing chambers and treated with 10 μM benzamil to block the Na^+ current prior to the experiment. FSK (10 μM), a potent cAMP agonist, was added to maximally stimulate anion secretion.

[5] = test system: AMPK; test: P-AMPK levels in kidneys of wild type mice after i.p. dosing; type: in vivo, mouse; details: wild type mice, 5, 10 or 25 mg/kg i.p. once per day for 4 days, two hours after last dose, compared to vehicle
Procedure: as §1, §2

[6] = test system: S6 kinase (S6K); test: Western blot of phosphorylated S6 kinase (P-S6K/S6K), downstream target of mTOR, in ADPKD cells; type: cell-based, human; details: 24 hours, control media 0.05% fetal bovine serum
Procedure: as §3, with “diameters. […] The numbers above blots indicate P-AMPK/AMPK normalized to control. […] ADPKD cells were treated with BIT129, BIT130, and BIT131 (e.g., 100 nm) for 24 h, then cell lysates were prepared. […] The rank order of the effect of the new drugs on AMPK phosphorylation was BIT-131>BIT-130>BIT-129.” for “diameters.”

[7] = test system: human ADPKD cells; test: In vitro cyst growth of ADPKD cells within a collagen matrix; type: cell-based; details: 5 μM forskolin and 5 ng/ml EGF, cysts diameter ≥50 μm
Procedure: as §3
Cells were seeded in PureCol Type I collagen and stimulated to form cysts with 5 μM forskolin (FSK) and 5 ng/ml epidermal growth factor (EGF) for 3 days. […] FIG. 4A includes representative images of individual wells.

[8] = test system: Pkd1 mutant kidneys; test: Ex vivo cyst formation in Pkd1-/- embryonic kidneys in metanephric organ culture; set-up: species or system mouse; details: 10 μM, 100 μM 8-Br-cAMP, E15.5 kidneys, 4 days in culture
Procedure: FIG. 6 includes images that show the effect of BIT-11 on cyst-like tubule expansions in Pkd1 mutant kidneys. Kidneys were harvested from Pkd1 mutant (Pkd1^−/−) mice at embryonic day 15.5 (E15.5) and placed on permeable cell culture inserts. The kidneys were bathed in media containing 100 μM 8-Bromo-adenosine 3′,5′-cyclic monophosphate (cAMP) to stimulate mural epithelial cell proliferation and Cl^−-dependent fluid secretion, key factors in cyst formation. Images of kidneys were captured using a digital camera connected to a dissecting microscope and cystic area was monitored for 4 days. cAMP induced the formation of cyst-like dilations in Pkd1^−/− kidneys that progressively enlarged over 4 days in culture.

[9] = test system: human ADPKD cells; test: Proliferation of human ADPKD cells (automated cell count); type: cell-based; details: 10 to 1000 nM, 48 h, 0.05% fetal bovine serum
Source text: Cells were counted using an automated cell counter.

[10] = test system: AMPK; test: Western blot of phosphorylated AMPK (P-AMPK/AMPK) in ADPKD cells; type: cell-based, human; details: for phosphorylation of AMPK: 100 nm, 24 h; for rank order of the effect on AMPK phosphorylation: western blot
Procedure: as §3, with “diameters. […] The numbers above blots indicate P-AMPK/AMPK normalized to control. […] ADPKD cells were treated with BIT129, BIT130, and BIT131 (e.g., 100 nm) for 24 h, then cell lysates were prepared. […] The rank order of the effect of the new drugs on AMPK phosphorylation was BIT-131>BIT-130>BIT-129.” for “diameters.”

CN(C)C(=N)N=C(N)N [Metformin]
eliminated by renal excretion [1]: ~80%

O=C(O)c1ccc(/C=C2\SC(=S)N(c3cccc(C(F)(F)F)c3)C2=O)cc1 [CFTRinh-172]
anion current across ADPKD monolayers [2]: completely blocked

O=C(O)c1ccc(-c2noc(C3=Cc4cc(Cl)cc(Cl)c4OC3c3ccccc3)n2)cc1 (stereo not drawn) [BIT-11]
tolerability [3]: well tolerated | cAMP-induced Cl- secretion (steady-state short circuit current) [4]: a decrease in cAMP-induced Cl^− secretion | P-AMPK levels in the kidneys [5]: markedly increased P-AMPK levels in the kidneys | effect on P-S6K/S6K [6]: can inhibit phosphorylation of S6K increasingly at increasing amounts | total cyst surface area (in vitro cyst growth) [7]: can inhibit cyst proliferation | cyst formation in Pkd1-/- kidneys [8]: nearly eliminated cyst formation | effect on proliferation of human ADPKD cells [9]: increasingly inhibit proliferation of ADPKD cells | effect on P-AMPK/AMPK ([10]; ADPKD cells, BIT-11 at 10 nM, 100 nM and 1,000 nM, 24 hours): can promote phosphorylation of AMPK increasingly with increasing amounts | biological activity compared with AMPK activator Metformin ([10]; comparison with Metformin): much better efficacy

OB(O)c1ccc(-c2noc(C3=Cc4cc(Cl)cc(Cl)c4OC3c3ccccc3)n2)cc1 (stereo not drawn) [BIT-130]
phosphorylation of AMPK ([10]; ADPKD cells): can promote phosphorylation of AMPK | rank order of the effect on AMPK phosphorylation ([10]; ADPKD cells): BIT-131>BIT-130>BIT-129

CC1(C)OB(c2ccc(-c3noc(C4=Cc5cc(Cl)cc(Cl)c5OC4c4ccccc4)n3)cc2)OC1(C)C (stereo not drawn) [BIT-129]
phosphorylation of AMPK ([10]; ADPKD cells): can promote phosphorylation of AMPK | rank order of the effect on AMPK phosphorylation ([10]; ADPKD cells): BIT-131>BIT-130>BIT-129
